ChEMBL document CHEMBL1159211, “Antifungal evaluation of pseudolaric acid B, a major constituent of Pseudolarix kaempferi” (J Nat Prod, 1995)
Converted amounts (≈) assume the structure as drawn.

How the values were obtained:
[1] = test system: Candida parapsilosis; assay: Antifungal activity against Candida parapsilosis ATCC 20224 by twofold serial broth dilution method; assay type: functional; details: Lodderomyces parapsilosis
[2] = test system: Torula; assay: Antifungal activity against Torula cremoris NRRL 7495 by twofold serial broth dilution method; assay type: functional
[3] = test system: Candida albicans; assay: Antifungal activity against Candida albicans NIH B311 infected in mouse assessed as reduction in number of recovered colony-forming units assessed per mg of kidney at 10 mg/kg, sc administered 7 and 24 hrs after infection measured 16 hrs after final injection by tenfold serial dilution method relative to control; assay type: functional; set-up: scale not given: the % may be the effect or the level left; details: route subcutaneous
[4] = test system: Candida tropicalis; assay: Antifungal activity against Candida tropicalis ATCC 20021 by twofold serial broth dilution method; assay type: functional
[5] = test system: Yarrowia deformans; assay: Antifungal activity against Torulopsis petrophilum ATCC 20225 by twofold serial broth dilution method; assay type: functional
[6] = test system: Mus musculus; assay: Toxicity in CD1 mouse assessed as body weight at 40 mg/kg, ip administered for 14 consecutive days measured after day 14; assay type: organism-based; set-up: dose 40 mg/kg, route intraperitoneal; details: in vivo
[7] = Toxicity in iv dosed CD1 mouse; assay type: organism-based; details: in vivo
[8] = test system: Candida albicans; assay: Antifungal activity against Candida albicans ATCC 10231 by twofold serial broth dilution method; assay type: functional
[9] = test system: Candida parapsilosis; assay: Antifungal activity against Candida parapsilosis ATCC 20224 at 1 mg/mL by agar-well diffusion assay; assay type: functional; details: Lodderomyces parapsilosis, ATCC 20224; read-out: IZ
[10] = test system: Candida tropicalis; assay: Antifungal activity against Candida tropicalis LM 64 by twofold serial broth dilution method; assay type: functional
[11] = test system: Starmerella magnoliae; assay: Antifungal activity against Candida magnoliae ATCC 12573 at 1 mg/mL by agar-well diffusion assay; assay type: functional; details: ATCC 12573; read-out: IZ
[12] = test system: Aspergillus fumigatus; assay: Antimicrobial activity against Aspergillus fumigatus at 1 mg/mL by agar-well diffusion assay; assay type: functional; details: Aspergillus fumigatus; read-out: IZ
[13] = test system: Candida albicans; assay: Antifungal activity against Candida albicans B311 by twofold serial broth dilution method; assay type: functional
[14] = test system: Candida tropicalis; assay: Antifungal activity against Candida tropicalis LM 64 at 1 mg/mL by agar-well diffusion assay; assay type: functional; details: Candida tropicalis; read-out: IZ
[15] = test system: Mus musculus; assay: Toxicity in CD1 mouse assessed as body weight at 40 mg/kg, ip after day 1; assay type: organism-based; set-up: dose 40 mg/kg, route intraperitoneal; details: in vivo
[16] = test system: Nannizzia gypsea; assay: Antimicrobial activity against Microsporum gypseum at 1 mg/mL by agar-well diffusion assay; assay type: functional; details: Nannizzia gypsea; read-out: IZ
[17] = test system: Candida albicans; assay: Antifungal activity against Candida albicans ATCC 10231 at 1 mg/mL by agar-well diffusion assay; assay type: functional; details: Candida albicans, ATCC 10231; read-out: IZ
[18] = test system: Candida albicans; assay: Antifungal activity against Candida albicans NIH B311 infected in mouse assessed as reduction in number of recovered colony-forming units assessed per mg of kidney at 3 mg/kg, sc administered 7 and 24 hrs after infection measured 16 hrs after final injection by tenfold serial dilution method relative to control; assay type: functional; set-up: scale not given: the % may be the effect or the level left; details: route subcutaneous
[19] = test system: Candida albicans; assay: Antifungal activity against Candida stellatoidea SA-I at 1 mg/mL by agar-well diffusion assay; assay type: functional; details: Candida albicans; read-out: IZ
[20] = test system: Candida albicans; assay: Antifungal activity against Candida albicans NIH B311 infected in mouse assessed as reduction in number of recovered colony-forming units assessed per mg of kidney at 20 mg/kg, iv administered 18 and 42 hrs after infection measured 16 hrs after final injection by tenfold serial dilution method relative to control; assay type: functional; set-up: scale not given: the % may be the effect or the level left
[21] = test system: Mus musculus; assay: Toxicity in CD1 mouse assessed as body weight at 40 mg/kg, ip administered for 14 consecutive days measured after day 21; assay type: organism-based; set-up: dose 40 mg/kg, route intraperitoneal; details: in vivo
[22] = Toxicity in ip dosed CD1 mouse; assay type: organism-based; details: in vivo
[23] = test system: Candida albicans; assay: Antifungal activity against Candida stellatoidea SA-I by twofold serial broth dilution method; assay type: functional
[24] = test system: Candida tropicalis; assay: Antifungal activity against Candida tropicalis ATCC 20326 by twofold serial broth dilution method; assay type: functional
[25] = test system: Mycobacterium intracellulare; assay: Antimicrobial activity against Mycobacterium intracellular at 1 mg/mL by agar-well diffusion assay; assay type: functional; details: read-out: IZ
[26] = test system: Candida tropicalis; assay: Antifungal activity against Candida tropicalis ATCC 20326 at 1 mg/mL by agar-well diffusion assay; assay type: functional; details: Candida tropicalis, ATCC 20326; read-out: IZ
[27] = test system: Candida albicans; assay: Antifungal activity against Candida albicans B311 at 1 mg/mL by agar-well diffusion assay; assay type: functional; details: Candida albicans, B311; read-out: IZ
[28] = test system: Yarrowia deformans; assay: Antifungal activity against Torulopsis petrophilum ATCC 20225 at 1 mg/mL by agar-well diffusion assay; assay type: functional; details: Yarrowia deformans, ATCC 20225; read-out: IZ
[29] = test system: Trichophyton mentagrophytes; assay: Antimicrobial activity against Trichophyton mentagrophytes at 1 mg/mL by agar-well diffusion assay; assay type: functional; details: Trichophyton mentagrophytes; read-out: IZ
[30] = test system: Candida albicans; assay: Antifungal activity against Candida albicans NIH B311 infected in mouse assessed as reduction in number of recovered colony-forming units assessed per mg of kidney at 10 mg/kg, iv administered 18 and 42 hrs after infection measured 16 hrs after final injection by tenfold serial dilution method relative to control; assay type: functional; set-up: scale not given: the % may be the effect or the level left
[31] = test system: Candida albicans; assay: Antimicrobial activity against Candida albicans at 1 mg/mL by agar-well diffusion assay; assay type: functional; details: Candida albicans; read-out: IZ
[32] = test system: Candida albicans; assay: Antifungal activity against Candida albicans NIH B311 infected in mouse assessed as reduction in number of recovered colony-forming units assessed per mg of kidney at 20 mg/kg, sc administered 7 and 24 hrs after infection measured 16 hrs after final injection by tenfold serial dilution method relative to control; assay type: functional; set-up: scale not given: the % may be the effect or the level left; details: route subcutaneous
[33] = test system: Torula; assay: Antifungal activity against Torula cremoris NRRL 7495 at 1 mg/mL by agar-well diffusion assay; assay type: functional; details: Torula, NRRL 7495; read-out: IZ
[34] = test system: Mus musculus; assay: Toxicity in CD1 mouse assessed as unusual behavioral changes at 40 mg/kg, ip administered for 14 consecutive days measured daily for 4 weeks; assay type: organism-based; set-up: dose 40 mg/kg, route intraperitoneal; details: in vivo, 672 h
[35] = test system: Candida tropicalis; assay: Antifungal activity against Candida tropicalis ATCC 20021 at 1 mg/mL by agar-well diffusion assay; assay type: functional; details: Candida tropicalis, ATCC 20021; read-out: IZ
[36] = test system: Candida albicans; assay: Antifungal activity against Candida albicans NIH B311 infected in mouse assessed as reduction in number of recovered colony-forming units assessed per mg of kidney at 1 mg/kg, ip administered 7 and 24 hrs after infection measured 16 hrs after final injection by tenfold serial dilution method relative to control; assay type: functional; set-up: scale not given: the % may be the effect or the level left; details: route intraperitoneal

COC(=O)C1=CC[C@@]23CC[C@@H]([C@@](C)(/C=C/C=C(\C)C(=O)O)OC2=O)[C@@]3(OC(C)=O)CC1 [PSEUDOLARIC ACID B]
MFC [1]: 12.5 µg/mL (≈ 28.9 µM) | MIC [1]: 3.12 µg/mL (≈ 7.21 µM) | MFC [2]: 12.5 µg/mL (≈ 28.9 µM) | MIC [2]: 12.5 µg/mL (≈ 28.9 µM) | Activity [3]: 75% | MFC [4]: 3.12 µg/mL (≈ 7.21 µM) | MIC [4]: 1.56 µg/mL (≈ 3.61 µM) | MFC [5]: 1.56 µg/mL (≈ 3.61 µM) | MIC [5]: 0.78 µg/mL (≈ 1.8 µM) | Activity [6]: 24.1 g | LD50 [7]: 423 mg/kg | MFC [8]: 3.12 µg/mL (≈ 7.21 µM) | MIC [8]: 1.56 µg/mL (≈ 3.61 µM) | zone of inhibition at 1000 µg/mL [9]: 7 mm | MFC [10]: 6.25 µg/mL (≈ 14.5 µM) | MIC [10]: 0.78 µg/mL (≈ 1.8 µM) | zone of inhibition at 1000 µg/mL [11]: < 1 mm | zone of inhibition at 1000 µg/mL [12]: 3 mm | MFC [13]: 3.12 µg/mL (≈ 7.21 µM) | MIC [13]: 1.56 µg/mL (≈ 3.61 µM) | zone of inhibition at 1000 µg/mL [14]: > 12 mm | Activity [15]: 22.5 g | zone of inhibition at 1000 µg/mL [16]: 7 mm | zone of inhibition at 1000 µg/mL [17]: 7 mm | Activity [18]: 70.27% | zone of inhibition at 1000 µg/mL [19]: > 12 mm | Activity [20]: 59.9% | Activity [21]: 24.7 g | LD50 [22]: 316 mg/kg | MFC [23]: 6.25 µg/mL (≈ 14.5 µM) | MIC [23]: 1.56 µg/mL (≈ 3.61 µM) | MFC [24]: 3.12 µg/mL (≈ 7.21 µM) | MIC [24]: 1.56 µg/mL (≈ 3.61 µM) | zone of inhibition at 1000 µg/mL [25]: 1 mm | zone of inhibition at 1000 µg/mL [26]: 7 mm | zone of inhibition at 1000 µg/mL [27]: 7 mm | zone of inhibition at 1000 µg/mL [28]: 7 mm | zone of inhibition at 1000 µg/mL [29]: 7 mm | Activity [30]: 95.34% | zone of inhibition at 1000 µg/mL [31]: 7 mm | Activity [32]: 76.7% | zone of inhibition at 1000 µg/mL [33]: 3 mm | Activity [34]: Non-toxic | zone of inhibition at 1000 µg/mL [35]: 7 mm

C[C@@H]1[C@H](O)[C@@H](C)/C=C/C=C/C=C/C=C/C=C/C=C/C=C/[C@H](O[C@@H]2O[C@H](C)[C@@H](O)[C@H](N)[C@@H]2O)C[C@@H]2O[C@](O)(C[C@@H](O)C[C@@H](O)[C@H](O)CC[C@@H](O)C[C@@H](O)CC(=O)O[C@H]1C)C[C@H](O)[C@H]2C(=O)O [AMPHOTERICIN B]
MIC [1]: 1.56 µg/mL (≈ 1.69 µM) | MIC [2]: 3.12 µg/mL (≈ 3.38 µM) | MIC [4]: 3.12 µg/mL (≈ 3.38 µM) | MIC [5]: 0.2 µg/mL (≈ 0.216 µM) | MIC [8]: 3.12 µg/mL (≈ 3.38 µM) | zone of inhibition at 1000 µg/mL [9]: 3 mm | MIC [10]: 1.56 µg/mL (≈ 1.69 µM) | zone of inhibition at 1000 µg/mL [11]: 7 mm | MIC [13]: 1.56 µg/mL (≈ 1.69 µM) | zone of inhibition at 1000 µg/mL [14]: 7 mm | zone of inhibition at 1000 µg/mL [17]: 7 mm | zone of inhibition at 1000 µg/mL [19]: 7 mm | MIC [23]: 3.12 µg/mL (≈ 3.38 µM) | MIC [24]: 1.56 µg/mL (≈ 1.69 µM) | zone of inhibition at 1000 µg/mL [26]: 7 mm | zone of inhibition at 1000 µg/mL [27]: 7 mm | zone of inhibition at 1000 µg/mL [28]: 7 mm | zone of inhibition at 1000 µg/mL [33]: 7 mm | zone of inhibition at 1000 µg/mL [35]: 7 mm | Activity [36]: 99.82%
